Source: patent publication US11332756B2, “RNA virus vectors carrying DAI and RIPK3” (Institute For Cancer Research, priority 2016, dated 2022)
*1 amine or outer side, *2 acyl side, *3 side chain or, on linkers, in order; H or OH if unused. Where a SMILES comes first, the peptide text is derived from it. Bridges are numbered along the chain shown (N, C = ends). Roman numbers before positions name the chains, in order. [ ]: non-standard residue; d: D form. The star is where a group is joined. Actinocin(9to1) = Cc1c2oc3c(C)ccc(C(=O)[*:1])c3nc-2c(C(=O)[*:2])c(N)c1=O; NMeV = CN[C@H](C(=O)O)C(C)C; Cbz = O=C(OCc1ccccc1)*; Sar = CNCC(=O)O; CH2F = FC*

Tests used:
RIPK3-RIPK1 necrosome [1] = biological target: T1, RIPK3-RIPK1 necrosome (Mus musculus, UniProt Q9QZL0); assay: IAV-induced RIPK3-RIPK1 necrosome formation (RIPK3 immunoprecipitation) in MEFs; type: cell-based, murine; details: for IAV (PR8)-induced RIPK3-RIPK1 necrosome / complex formation: PR8-infected MEFs, cells pre-treated with agent, RIPK3 immunoprecipitation
T1 construct: RIPK3 was immunoprecipitated from lysates of PR8-infected MEFs; endogenous in cells; host or cells: wild-type mouse embryo fibroblasts (MEFs)
T1 sequence (Q9QZL0 whole entry): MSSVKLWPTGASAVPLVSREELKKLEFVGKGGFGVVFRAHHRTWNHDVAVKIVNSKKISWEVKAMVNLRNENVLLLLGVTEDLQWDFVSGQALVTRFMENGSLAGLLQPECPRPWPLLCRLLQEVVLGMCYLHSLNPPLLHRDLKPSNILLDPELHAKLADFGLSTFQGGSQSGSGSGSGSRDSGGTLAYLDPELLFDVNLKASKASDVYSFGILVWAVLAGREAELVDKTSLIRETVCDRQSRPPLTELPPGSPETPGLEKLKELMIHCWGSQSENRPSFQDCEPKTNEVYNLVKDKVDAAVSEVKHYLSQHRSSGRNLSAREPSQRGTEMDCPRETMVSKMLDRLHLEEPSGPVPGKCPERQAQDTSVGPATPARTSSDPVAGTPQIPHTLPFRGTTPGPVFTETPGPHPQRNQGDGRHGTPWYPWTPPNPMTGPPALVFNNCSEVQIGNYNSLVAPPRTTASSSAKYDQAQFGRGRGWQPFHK
From the text: (§1) IAV replication results in assembly of a RIPK3 complex containing RIPK1, FADD and MLKL. A molecular feature of RIPK3 dependent cell death is the stimulus-driven formation of a molecular complex called the necrosome, comprising as its core phosphorylated forms of RIPK3 and RIPK1, together with FADD and MLKL. From the necrosome, RIPK3 can activate both necroptosis and apoptosis, depending on target availability or RIPK3 activity. To test if IAV induced formation of a necrosome, RIPK3 was immunoprecipitated from lysates of PR8-infected MEFs, and immunoprecipitates were examined for the presence of slower-mobility forms of phosphorylated RIPK1. PR8 activated necrosome formation to a significant extent, as did the combination of PR8+zVAD (see, FIG. 4A, left and middle panels). Like TNF-α (see, FIG. 4A, right panels), IAV infection also drove the recruitment of FADD and MLKL into the RIPK3-RIPK1 necrosome.

RIPK3-RIPK1 necrosome [2] = biological target: T1, RIPK3-RIPK1 necrosome; assay: TNF-α-induced necrosome assembly in MEFs; type: cell-based, murine; details: same doses as in PR8 experiment; not shown
From the text: as §1

IAV (PR8) = type: cell-based, Influenza A virus
[3] = tested on: wild-type MEFs infected with PR8; type: cell-based, murine
[4] = tested on: TCZ-treated wild-type MEFs; type: cell-based, murine
[5] = tested on: ripk1−/− MEFs infected with PR8; type: cell-based, murine
[6] = tested on: mlkl−/− MEFs infected with PR8; type: cell-based, murine
[7] = tested on: apoptosis activated by TRAIL and cycloheximide in MEFs; assay: Apoptosis induced by TRAIL and cycloheximide; type: cell-based, murine; details: TRAIL 2 μg/ml + CHX 250 ng/ml; anti-TRAIL-R2 10 μg/ml; zVAD same dose as in PR8 test
[8] = tested on: MLKL phosphorylation and cleavage of caspase 8; assay: Immunoblot of phosphorylated MLKL and cleaved caspase 8 in PR8-infected MEFs; type: cell-based, murine; details: wild-type MEFs, zVAD 50 μM
[9] = tested on: ripk3−/− MEFs infected with PR8; type: cell-based, murine

| Structure (SMILES) | IAV (PR8)-induced RIPK3-RIPK1 necrosome / complex formation (RIPK3-RIPK1 necrosome [1]) | viral replication (IAV (PR8)) | protection of viability after PR8 infection, inhibitor alone [3] | further results |
| --- | --- | --- | --- | --- |
| Cc1c2oc3c(C)ccc(C(=O)N[C@@H]4C(=O)N[C@H](C(C)C)C(=O)N5CCC[C@H]5C(=O)N(C)CC(=O)N(C)[C@@H](C(C)C)C(=O)O[C@@H]4C)c3nc-2c(C(=O)N[C@@H]2C(=O)N[C@H](C(C)C)C(=O)N3CCC[C@H]3C(=O)N(C)CC(=O)N(C)[C@@H](C(C)C)C(=O)O[C@@H]2C)c(N)c1=O [ActD, Actinomycin D] (I: T[dV]P[Sar][NMeV] / II: T[dV]P[Sar][NMeV]; ester I:1-I:C, II:1-II:C; linker I:N-II:N via Actinocin(9to1)) | effectively prevented | effectively prevented |  | effect on TNF-α-induced necrosome assembly (RIPK3-RIPK1 necrosome [2]): Neither ActD nor CHX at these doses affected |
| C[C@@H]1C[C@@H]([C@H](O)CC2CC(=O)NC(=O)C2)C(=O)[C@@H](C)C1 [CHX, cycloheximide] | effectively prevented | effectively prevented |  | effect on TNF-α-induced necrosome assembly (RIPK3-RIPK1 necrosome [2]): Neither ActD nor CHX at these doses affected |
| CN1C(=O)[C@@H](NC(=O)c2cc(Cc3ccccc3)on2)COc2ccccc21 [GSK'481] | inability of these agents to prevent IAV-driven necrosome formation |  | did not have any discernible protective effect |  |
| Cc1cc(-c2cnc(N)c3c(-c4ccc5scnc5c4)csc23)n(C)n1 [GSK'843] | blocked PR8-induced necrosome assembly |  | failed to prevent PR8-induced cell death | protection against TNF-α-induced necroptosis / cell death [4]: fully protective; protection from PR8-induced cell death in ripk1−/− MEFs [5]: almost-fully protected |
| CC(C)S(=O)(=O)c1ccc2nccc(Nc3ccc4scnc4c3)c2c1 [GSK'872] | blocked PR8-induced necrosome assembly |  | failed to prevent PR8-induced cell death | protection against TNF-α-induced necroptosis / cell death [4]: fully protective; protection from PR8-induced cell death in ripk1−/− MEFs [5]: almost-fully protected |
| CC(C)(C)C(=O)N1N=CC[C@H]1c1ccccc1 [GSK'963] | inability of these agents to prevent IAV-driven necrosome formation |  | did not have any discernible protective effect |  |
| CN1C(=O)C(Cc2c[nH]c3ccccc23)NC1=S (stereo not drawn) [Nec-1, Necrostatin 1] | inability of these agents to prevent IAV-driven necrosome formation |  | did not have any discernible protective effect |  |
| Cc1onc(-c2ccccc2)c1C(=O)N1CCN(c2ccc([N+](=O)[O-])cc2Cl)CC1 [nucleozin] | potently blocked | abrogated viral replication |  |  |
| CC[C@H](C)[C@H](NC(=O)OCc1ccccc1)C(=O)N[C@@H](CCC(=O)OC)C(=O)N[C@H](C(=O)N[C@@H](CC(=O)OC)C(=O)CF)[C@@H](C)O [zIETD, zIETD.fmk] (Cbz-IE(OMe)TD(OMe)-CH2F) |  |  |  | protection against PR8 compared with zVAD [6]: less protection against PR8 than zVAD; rescue from PR8-induced cell death in mlkl−/− MEFs [6]: significant protection |
| COC(=O)C[C@H](NC(=O)[C@H](C)NC(=O)[C@@H](NC(=O)OCc1ccccc1)C(C)C)C(=O)CF [zVAD, zVAD.fmk] (Cbz-Val-Ala-Asp(OMe)-CH2F) |  |  | did not protect | necrosome formation induced by the agent alone (RIPK3-RIPK1 necrosome [1]; zVAD alone, 25 μM, no virus): did not induce detectable necrosome formation; rescue from PR8-induced cell death in mlkl−/− MEFs [6]: fully rescued; protection against apoptosis induced by TRAIL and cycloheximide [7]: prevented apoptosis; IAV-induced cleavage of caspase 8 [8]: inhibited; viability of PR8-infected ripk3−/− MEFs [9]: remained mostly alive |
